Measurements taken from BindingDB's records for doi:10.1111/cbdd.12822 (Wuhan University of Technology, 2016).

Key:
[1] = biological target: Carboxylic ester hydrolase (Equus caballus, UniProt Q9N1N9); test: AChE and BuChE Inhibition Assay; settings: pH 8; 25 °C
Method: (§1) This spectrophotometric assay is based on the reaction of 5,5-dithio-bis(2-nitrobenzoic)acid (DTNB) with thiocholine to yield a colored product. Shimadzu (Kyoto, Japan) UV-1700 UV-vis spectrophotometer was used to record the measurements. The enzyme solutions were prepared at 2.5 units/mL concentrationin 1% gelatin solution. BChE/AChE and compound solutions (50 μL each) in 2% DMSO at 10^-1-10^-6 mM concentration were added to 3 mL phosphate buffer (pH 8 &plusnm; 0.1)followed by incubation for 5 min at 25 °C. The reaction was commenced by the addition of acetylthiocholine iodide (ATC) (10 μL) and DTNB (50 μL) to the enzyme-inhibitor mixture. […] The blank reading contained 10 μL substrate, 50 μL DTNB, 50 μL (2%) DMSO, and 3 mL buffer. The reaction was performed in triplicate.

[2] = biological target: Acetylcholinesterase (Electrophorus electricus, UniProt O42275); test: AChE and BuChE Inhibition Assay; settings: pH 8; 25 °C
Sequence of Acetylcholinesterase (O42275 whole entry): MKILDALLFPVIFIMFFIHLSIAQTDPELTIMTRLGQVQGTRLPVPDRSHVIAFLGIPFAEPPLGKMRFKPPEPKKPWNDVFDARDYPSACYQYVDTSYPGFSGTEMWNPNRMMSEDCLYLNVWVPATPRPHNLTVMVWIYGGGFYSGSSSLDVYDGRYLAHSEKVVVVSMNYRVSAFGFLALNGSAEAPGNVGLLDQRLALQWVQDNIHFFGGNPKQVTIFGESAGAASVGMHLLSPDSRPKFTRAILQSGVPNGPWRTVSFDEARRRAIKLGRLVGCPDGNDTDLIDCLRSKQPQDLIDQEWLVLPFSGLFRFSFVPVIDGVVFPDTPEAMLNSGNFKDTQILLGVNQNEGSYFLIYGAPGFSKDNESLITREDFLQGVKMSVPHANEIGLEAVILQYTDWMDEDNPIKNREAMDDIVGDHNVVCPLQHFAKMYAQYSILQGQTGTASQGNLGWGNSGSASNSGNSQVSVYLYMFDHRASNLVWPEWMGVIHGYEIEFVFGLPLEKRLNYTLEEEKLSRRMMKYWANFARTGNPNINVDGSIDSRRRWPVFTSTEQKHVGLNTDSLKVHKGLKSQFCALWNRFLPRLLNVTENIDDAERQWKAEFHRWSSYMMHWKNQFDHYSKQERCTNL
Method: as §1

[3] = biological target: T1, Amine oxidase [flavin-containing] A (Rattus norvegicus, UniProt P21396); test: Monoamine Oxidase Assay; settings: pH 7.4; 38 °C
T1 sequence (P21396 whole entry): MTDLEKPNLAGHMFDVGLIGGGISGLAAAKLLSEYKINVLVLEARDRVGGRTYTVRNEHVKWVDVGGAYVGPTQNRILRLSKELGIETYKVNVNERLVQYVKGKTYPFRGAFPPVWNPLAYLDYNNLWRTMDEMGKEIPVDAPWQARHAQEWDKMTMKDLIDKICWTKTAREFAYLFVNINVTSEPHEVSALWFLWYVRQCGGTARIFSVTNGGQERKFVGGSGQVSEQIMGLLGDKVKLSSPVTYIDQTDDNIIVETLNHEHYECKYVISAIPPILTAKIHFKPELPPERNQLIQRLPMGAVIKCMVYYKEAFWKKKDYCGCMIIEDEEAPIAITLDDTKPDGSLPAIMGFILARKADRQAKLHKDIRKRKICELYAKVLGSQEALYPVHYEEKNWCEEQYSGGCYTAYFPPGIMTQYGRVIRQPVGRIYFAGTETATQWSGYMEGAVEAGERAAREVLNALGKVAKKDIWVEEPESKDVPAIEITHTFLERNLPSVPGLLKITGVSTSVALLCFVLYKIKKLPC

[4] = biological target: T2, Amine oxidase [flavin-containing] B (Rattus norvegicus, UniProt P19643); test: Monoamine Oxidase Assay; settings: pH 7.4; 38 °C
T2 sequence (P19643 whole entry): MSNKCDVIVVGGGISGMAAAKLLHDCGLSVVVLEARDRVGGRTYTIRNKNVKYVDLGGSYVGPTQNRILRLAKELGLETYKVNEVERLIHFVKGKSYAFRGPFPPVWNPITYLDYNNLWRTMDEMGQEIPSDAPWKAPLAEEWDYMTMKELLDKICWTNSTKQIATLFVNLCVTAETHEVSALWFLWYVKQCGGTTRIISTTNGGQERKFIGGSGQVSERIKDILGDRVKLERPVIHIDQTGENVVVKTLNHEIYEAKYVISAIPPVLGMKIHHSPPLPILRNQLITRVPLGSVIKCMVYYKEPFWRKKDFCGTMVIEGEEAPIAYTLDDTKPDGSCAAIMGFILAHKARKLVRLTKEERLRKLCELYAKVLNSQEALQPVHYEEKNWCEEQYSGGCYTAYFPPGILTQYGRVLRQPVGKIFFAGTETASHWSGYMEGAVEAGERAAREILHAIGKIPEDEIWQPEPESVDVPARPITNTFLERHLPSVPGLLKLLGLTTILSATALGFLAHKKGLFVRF

Sequence of Carboxylic ester hydrolase (Q9N1N9 whole entry): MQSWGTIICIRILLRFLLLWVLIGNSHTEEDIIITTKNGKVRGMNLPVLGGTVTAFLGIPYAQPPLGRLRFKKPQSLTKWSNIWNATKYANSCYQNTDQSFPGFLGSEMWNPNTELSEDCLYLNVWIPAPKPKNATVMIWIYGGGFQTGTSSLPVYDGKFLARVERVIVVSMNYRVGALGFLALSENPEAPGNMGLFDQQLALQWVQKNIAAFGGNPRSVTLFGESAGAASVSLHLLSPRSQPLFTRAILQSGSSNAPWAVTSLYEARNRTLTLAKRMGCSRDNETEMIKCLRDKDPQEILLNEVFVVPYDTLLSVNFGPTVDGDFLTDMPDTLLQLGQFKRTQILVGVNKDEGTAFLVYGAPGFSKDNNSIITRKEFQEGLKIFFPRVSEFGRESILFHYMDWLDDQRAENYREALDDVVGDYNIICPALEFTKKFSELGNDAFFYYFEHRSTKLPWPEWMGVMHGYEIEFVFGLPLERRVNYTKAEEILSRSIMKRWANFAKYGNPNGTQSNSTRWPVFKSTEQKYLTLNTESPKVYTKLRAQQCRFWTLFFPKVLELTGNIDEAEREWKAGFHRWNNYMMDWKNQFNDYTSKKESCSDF

| SMILES | IC50 [1] [µM] | IC50 [2] [µM] | IC50 [3] [µM] | IC50 [4] [µM] |
| --- | --- | --- | --- | --- |
| COc1cccc(/C=C2\CCc3ccc([N+](=O)[O-])cc3C2=O)c1Cl [(2E)-2-[(2-chloro-3-methoxyphenyl)methylidene]-7-nitro-1,2,3,4-tetrahydronaphthalen-1-one (3ae)] | 27.9 | 9.14 | 7.23 | 6.8 |
| COc1cc(/C=C2\CCc3ccc(Br)cc3C2=O)c(Br)c(OC)c1OC [(2E)-7-bromo-2-[(2-bromo-3,4,5-trimethoxyphenyl)methylidene]-1,2,3,4-tetrahydronaphthalen-1-one (3aa)] | > 100 | > 100 | > 100 | 44.6 |
| COc1ccc(/C=C2\CCc3ccc(Br)cc3C2=O)c(Cl)c1OC [(2E)-7-bromo-2-[(2-chloro-3,4-dimethoxyphenyl)methylidene]-1,2,3,4-tetrahydronaphthalen-1-one (3z)] | > 100 | > 100 | > 100 | 56.4 |
| COc1cccc(/C=C2\CCc3ccc(Br)cc3C2=O)c1Cl [(2E)-7-bromo-2-[(2-chloro-3-methoxyphenyl)methylidene]-1,2,3,4-tetrahydronaphthalen-1-one (3y)] | > 100 | > 100 | > 100 | 67.9 |
| COc1ccc(/C=C2\CCc3ccc(Cl)cc3C2=O)c(Cl)c1OC [(2E)-7-chloro-2-[(2-chloro-3,4-dimethoxyphenyl)methylidene]-1,2,3,4-tetrahydronaphthalen-1-one (3k)] | 56.7 | > 100 | > 100 | > 100 |
| COc1cccc(/C=C2\CCc3ccc(Cl)cc3C2=O)c1Cl [(2E)-7-chloro-2-[(2-chloro-3-methoxyphenyl)methylidene]-1,2,3,4-tetrahydronaphthalen-1-one (3j)] | > 100 | > 100 | > 100 | > 100 |
